Results as given in PMC6515340, “Synthesis of a Fluorous-Tagged Hexasaccharide and Interaction with Growth Factors Using Sugar-Coated Microplates” (Molecules, 2019).
“And” between values parts separate entries of the source, which are not always exact repeats. Equal values may be shown once. “Also recorded” adds a separate entry of the source. Read-outs that look alike come from different tables or passages of the source.

Key:
midkine [1] = biological target: T1, midkine (Homo sapiens, UniProt P21741); test: Fluorous sugar-coated microplate direct binding assay, midkine; design: purchased Peprotech
T1 sequence (P21741 21-143): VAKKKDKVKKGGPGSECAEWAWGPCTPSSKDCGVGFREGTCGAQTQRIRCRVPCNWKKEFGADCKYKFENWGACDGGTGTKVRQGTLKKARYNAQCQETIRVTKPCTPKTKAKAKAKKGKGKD
From the text: (§1) An alternative strategy was also considered to study these molecular recognition events. This approach involved the non-covalent immobilization of the fluorinated hexamer 17 on microtiter plates (Figure 1). Fluorous-based microarrays for the investigation of carbohydrate-protein interactions have been previously developed. A C8F17 tail was employed for the noncovalent immobilization of sugar derivatives on fluorous coated glass slides. However, to the best of our knowledge, an experimental protocol to study the interactions between fluorous sugar-coated conventional microplates and proteins has not been published. […] Thus, we created a fluorinated surface ready for the immobilization of compound 17 through noncovalent fluorous-fluorous interactions. […] Then, the binding of the attached sugar 17 to growth factors was analyzed. Incubation with different concentrations of midkine, FGF-2 and NGF was carried out and the bound protein was detected by further incubations with the corresponding primary and fluorescently labelled secondary antibodies (see Materials and Methods). Finally, the fluorescence was recorded using a standard microplate reader. The observation of fluorescence signals confirmed the interaction between immobilized 17 and the protein at a particular concentration. […]
(§2) The fluorescence was read at 535 nm using a TRIAD multimode microplate reader (from Dynex). […]

Recombinant human NGF = biological target: T2, Recombinant human NGF (Homo sapiens, UniProt P01138); test: Fluorous sugar-coated microplate direct binding assay, NGF
T2 construct: purchased Peprotech
T2 sequence (P01138 122-241): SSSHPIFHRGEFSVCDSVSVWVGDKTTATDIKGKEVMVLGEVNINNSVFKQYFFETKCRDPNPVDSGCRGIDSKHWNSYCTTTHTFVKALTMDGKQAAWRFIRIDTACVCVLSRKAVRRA
From the text: as §1, §2

FGF-2 [2] = biological target: T3, FGF-2 (Homo sapiens, UniProt P09038); test: Fluorous sugar-coated microplate direct binding assay, FGF-2; design: purchased Peprotech
From the text: as §1, §2
Target sequence in this assay (P09038 135-288 limits assumed): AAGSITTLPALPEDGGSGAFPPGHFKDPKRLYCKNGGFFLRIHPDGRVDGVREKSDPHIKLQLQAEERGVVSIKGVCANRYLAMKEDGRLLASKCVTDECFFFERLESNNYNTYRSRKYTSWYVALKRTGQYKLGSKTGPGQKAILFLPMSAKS

Concanavalin A = biological target: T4, Concanavalin A (Canavalia ensiformis, UniProt P02866); test: Sugar-coated microplate control with FITC-labelled Concanavalin A; assay type: binding; settings: fluorescently labelled protein at 11 µM
T4 construct: purchased Sigma
Method: (§3) Importantly, we performed a control experiment in which sugar 3, instead of hexamer 17, was immobilized on the fluorous-functionalized plate (see Supplementary Materials). […] In addition, wells coated with hexamer 17 were incubated with two fluorescently labelled non-GAG binding proteins, Concanavalin A and bovine serum albumin, at 11 µM concentration (see Supplementary Materials). Again, we observed no fluorescence signals from these wells.
(§4) 2. Control experiments using additional (irrelevant) proteins.
(§5) The wells of Nunc Immobilizer AminoTM 384 microtiter plates were functionalized with heptadecafluorononylamine linker and then filled with a solution of hexamer 17 as described in the Materials and Methods section of the main text. The resulting hexasaccharide 17-coated wells were ready to perform protein interaction studies. Blank wells were coated with the fluorous linker alone. […]
(§6) Finally, the fluorescence was read at 535 nm using a TRIAD multimode microplate reader (from Dynex). For each protein, the residual fluorescence intensities obtained from blank samples were subtracted from the sugar-coated well values. In Figure S4, we show the average fluorescence intensities of three replicates after incubation with BSA and ConA. For comparison purposes, we also display the fluorescence values obtained after incubation with a 375 nM solution of midkine (detected by antibody incubations). […]

midkine [3] = biological target: T1, midkine; test: Fluorescence polarization (FP) competition experiment, midkine; assay type: binding; settings: midkine 63 nM
From the text: (§7) Thus, we initiated the study of the interactions between 17 and midkine, FGF-2 and NGF growth factors. First, we estimated the solution-phase binding affinities using our previously reported fluorescence polarization (FP) competition experiment (see Supplementary Materials). Briefly, we measured the ability of hexasaccharide 17 to compete with a fluorescent probe for protein binding. Thus, we calculated IC50 values as 17 concentration required for 50% inhibition. […] We also attempted to measure the binding of 17 to NGF.
(§8) Fluorescence polarization assays
(§9) In order to calculate IC 50 values, fluorescence polarization competition experiments were performed following our previously reported protocol. 1 Briefly, we recorded the fluorescence polarization from wells containing 20 µL of protein solution (midkine or FGF-2) and 10 µL of probe solution (a fluorescein labelled heparin-like hexasaccharide) in the presence of 10 µL of 17 solutions with different concentrations. 384-well microplates from Corning were used in these assays. After shaking in the dark for 5 min, the fluorescence polarization was measured using a TRIAD multimode microplate reader (from Dynex), with excitation and emission wavelengths of 485 and 535 nm, respectively. […]
(also on this page, place not known: r 2 Fluorescence Polarization (mP) r 2 Fluorescence Polarization (mP) r 2 Fluorescence Polarization (mP))

bovine serum albumin = biological target: T5, bovine serum albumin (Bos taurus, UniProt P02769); test: Sugar-coated microplate control with FITC-labelled bovine serum albumin; assay type: binding; settings: fluorescently labelled protein at 11 µM
T5 construct: purchased Sigma-Aldrich
T5 sequence (P02769 25-607): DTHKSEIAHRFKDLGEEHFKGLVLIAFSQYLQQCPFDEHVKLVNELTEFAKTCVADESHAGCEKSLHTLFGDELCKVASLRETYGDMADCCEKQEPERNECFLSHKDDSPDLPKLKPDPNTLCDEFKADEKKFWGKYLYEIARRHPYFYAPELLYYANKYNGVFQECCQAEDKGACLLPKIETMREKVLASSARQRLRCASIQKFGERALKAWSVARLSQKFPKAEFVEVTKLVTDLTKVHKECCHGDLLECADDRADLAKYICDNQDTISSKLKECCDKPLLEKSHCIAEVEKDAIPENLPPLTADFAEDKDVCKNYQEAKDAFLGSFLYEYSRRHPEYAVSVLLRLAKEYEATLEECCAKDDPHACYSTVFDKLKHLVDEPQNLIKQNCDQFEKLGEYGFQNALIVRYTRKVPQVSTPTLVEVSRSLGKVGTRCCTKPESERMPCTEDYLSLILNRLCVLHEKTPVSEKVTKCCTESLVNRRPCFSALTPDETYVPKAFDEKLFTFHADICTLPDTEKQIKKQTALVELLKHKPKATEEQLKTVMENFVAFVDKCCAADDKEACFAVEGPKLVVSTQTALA
Method: as §3, §4, §5, §6

FGF-2 [4] = biological target: T3, FGF-2; test: Fluorescence polarization (FP) competition experiment, FGF-2; assay type: binding; settings: solution FP competition with fluorescent heparin-like hexasaccharide probe (10 nM), FGF-2 97 nM; average ± SD of three independent experiments
From the text: as §7, §8, §9
Target sequence in this assay (P09038 143-288): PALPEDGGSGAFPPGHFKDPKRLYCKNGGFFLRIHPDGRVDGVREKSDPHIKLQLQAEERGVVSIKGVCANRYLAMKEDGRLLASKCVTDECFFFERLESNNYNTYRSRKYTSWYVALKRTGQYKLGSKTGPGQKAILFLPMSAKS
(also on this page, place not known: r 2 Fluorescence Polarization (mP) IC50 r 2 Fluorescence Polarization (mP) IC50 r 2 Fluorescence Polarization (mP))

[5] = read-out: KD,surf, sugar immobilized on fluorous-functionalized microplate, one-site binding model

SMILES	fluorescence signal / interaction of immobilized sugar with midkine (midkine [1]; control, sugar immobilized from 250 µM solution, 375 nM midkine)	fluorescence signal / interaction of immobilized sugar with NGF (Recombinant human NGF; control, sugar immobilized from 250 µM solution, 1.8 µM NGF)	fluorescence signal / interaction of immobilized sugar with FGF-2 (FGF-2 [2]; control, sugar immobilized from 250 µM solution, 387 nM FGF-2)	Kd (midkine [1]; [5]) [nM]	interaction of immobilized sugar with Concanavalin A (Concanavalin A)	IC50 (midkine [3]; Figure S1, individual competition curves, probe 10 nM, read-out: IC50 (single independent experiment))	IC50 (midkine [3]; solution FP competition with fluorescent heparin-like hexasaccharide probe (10 nM), average ± SD of three independent experiments, read-out: IC50) [nM]	interaction of immobilized sugar with bovine serum albumin (bovine serum albumin)	Kd (Recombinant human NGF; [5]) [nM]	Kd (FGF-2 [2]; [5]) [nM]	IC50 (FGF-2 [4]) [nM]
COc1ccc(O[C@@H]2O[C@H](COC(=O)CCC(F)(F)C(F)(F)C(F)(F)C(F)(F)C(F)(F)C(F)(F)C(F)(F)C(F)(F)F)[C@@H](O)[C@H](OCc3ccccc3)[C@H]2OC(=O)c2ccccc2)cc1 [Compound 3]	did not significantly interact; also recorded: No fluorescence signals above background	did not significantly interact; also recorded: No fluorescence signals above background	did not significantly interact; also recorded: No fluorescence signals above background	–	–	–	–	–	–	–	–
COc1ccc(OC2OC(COC(=O)CCC(F)(F)C(F)(F)C(F)(F)C(F)(F)C(F)(F)C(F)(F)C(F)(F)C(F)(F)F)C(OC3OC(COS(=O)(=O)O)C(OS(=O)(=O)O)C(OC4OC(COC(=O)C(C)(C)C)C(OC5OC(COS(=O)(=O)O)C(OS(=O)(=O)O)C(OC6OC(COC(=O)C(C)(C)C)C(OC7OC(COS(=O)(=O)O)C(OS(=O)(=O)O)C(OC(=O)CCC(C)=O)C7N7C(=O)c8ccccc8C7=O)C(OCc7ccccc7)C6OC(=O)c6ccccc6)C5N5C(=O)c6ccccc6C5=O)C(OCc5ccccc5)C4OC(=O)c4ccccc4)C3N3C(=O)c4ccccc4C3=O)C(OCc3ccccc3)C2OC(=O)c2ccccc2)cc1 (centres unmarked) [Compound 17]	–	–	–	16 ± 5	did not interact	428 nM and 479 nM and 431 nM	450 ± 30	did not interact	1600 ± 400	57 ± 10	6300 ± 1600
